According to the supplement of paper PMC10331698:
± gives the standard deviation of the averaged measurements.

Legend:
Experiment in all cases: level (log10 ratio to DMSO vehicle control); higher = higher biomarker level / cell amount than vehicle control
Conditions in all cases: in DMSO
Heptafluorobutyramide = compound: NC(=O)C(F)(F)C(F)(F)C(F)(F)F [Heptafluorobutyramide]
Experimental: (§1)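 BioMAP Diversity Plus panel of 12 human primary cell co-culture systems (3C, 4H, LPS, SAg, BT, BF4T, BE3C, CASM3C, HDF3CGF, KF3CT, MyoF, Mphg). Compounds were added 1 h before stimulation and left for 24 h (MyoF 48 h; BT 72 h for soluble read-outs or 6 d for IgG). Biomarkers were read by ELISA, cytotoxicity by SRB, PBMC viability and proliferation by Alamar Blue. Each well value was divided by the mean of 8 DMSO control wells on the same plate and log10 transformed; duplicate blinded samples were tested at 4 concentrations.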

Perfluoropropanoic acid = compound: O=C(O)C(F)(F)C(F)(F)F [Perfluoropropanoic acid]
Experimental: as §1

[1] = compound: FC(F)(F)C(F)(F)C(F)(F)C(F)(F)C(F)(F)CCI [1-Iodo-1H,1H,2H,2H-perfluoroheptane]
Experimental: as §1

Perfluoro-1-iodohexane = compound: FC(F)(F)C(F)(F)C(F)(F)C(F)(F)C(F)(F)C(F)(F)I [Perfluoro-1-iodohexane]
Experimental: as §1

[2] = compound: CCN(CCO)S(=O)(=O)C(F)(F)C(F)(F)C(F)(F)C(F)(F)C(F)(F)C(F)(F)C(F)(F)C(F)(F)F [N-Ethyl-N-(2-hydroxyethyl)perfluorooctanesulfonamide]
Experimental: as §1

[3] = compound: O=C(O)C(F)(F)OC(F)(F)C(F)(F)OC(F)(F)F [Perfluoro-3,6-dioxaheptanoic acid]
Experimental: as §1

[4] = compound: O=C(O)C(F)(F)C(F)(F)C(F)(F)OC(F)(C(F)(F)F)C(F)(F)F [Perfluoro-4-isopropoxybutanoic acid]
Experimental: as §1

| Test System | level (log10) (Heptafluorobutyramide; 6700 nM) | level (log10) (Heptafluorobutyramide; 20000 nM) | level (log10) (Heptafluorobutyramide; 60000 nM) | level (log10) (Perfluoropropanoic acid; 6700 nM) | level (log10) (Perfluoropropanoic acid; 20000 nM) | level (log10) (Perfluoropropanoic acid; 60000 nM) | level (log10) ([1]; 6700 nM) | level (log10) ([1]; 20000 nM) | level (log10) ([1]; 60000 nM) | level (log10) (Perfluoro-1-iodohexane; 6700 nM) | level (log10) (Perfluoro-1-iodohexane; 20000 nM) | level (log10) (Perfluoro-1-iodohexane; 60000 nM) | level (log10) ([2]; 6700 nM) | level (log10) ([2]; 20000 nM) | level (log10) ([3]; 6700 nM) | level (log10) ([3]; 20000 nM) | level (log10) ([3]; 60000 nM) | level (log10) ([4]; 6700 nM) | level (log10) ([4]; 20000 nM) | level (log10) ([4]; 60000 nM) |
| --- | --- | --- | --- | --- | --- | --- | --- | --- | --- | --- | --- | --- | --- | --- | --- | --- | --- | --- | --- | --- |
| KF3CT:CCL2/MCP-1 | -0.006 ± 0.0014 | -0.009 ± 0.013 | 0.0165 ± 0.057 | -0.0395 ± 0.0078 | -0.018 ± 0.028 | 0.0055 ± 0.06 | 0.0005 ± 0.015 | -0.034 ± 0.028 | -0.0465 ± 0.064 | 0.0225 ± 0.032 | -0.015 ± 0.0014 | -0.0185 ± 0.047 | -0.0205 ± 0.0078 | -0.102 ± 0.019 | -0.0175 ± 0.016 | -0.0345 ± 0.0078 | 0.0395 ± 0.028 | 0.0235 ± 0.039 | 0.032 ± 0.018 | 0.023 ± 0.052 |
| CASM3C:CD87/uPAR | -0.0065 ± 0.026 | -0.0115 ± 0.032 | -0.033 ± 0.054 | -0.0215 ± 0.019 | -0.008 ± 0.038 | 0.001 ± 0.013 | 0.008 ± 0.016 | -0.0075 ± 0.0078 | -0.0265 ± 0.037 | 0 ± 0.0085 | -0.0105 ± 0.03 | 0.003 ± 0.021 | -0.0595 ± 0.0092 | -0.09 ± 0.038 | -0.0105 ± 0.043 | 0.022 ± 0.013 | -0.006 ± 0.018 | -0.0225 ± 0.046 | -0.0265 ± 0.052 | 0.003 ± 0.014 |
| lMphg:CXCL8/IL-8 | 0.0095 ± 0.035 | -0.0195 ± 0.0064 | 0.032 ± 0.038 | 0.0055 ± 0.0078 | 0.017 ± 0.018 | 0.0175 ± 0.043 | 0.005 ± 0.0057 | -0.01 ± 0.0099 | 0.0495 ± 0.025 | -0.0075 ± 0.039 | 0.0325 ± 0.016 | 0.0585 ± 0.064 | -0.047 ± 0.048 | -0.032 ± 0.016 | 0.026 ± 0.017 | 0.068 ± 0.051 | 0.167 ± 0.074 | 0.02 ± 0.042 | 0.066 ± 0.038 | 0.164 ± 0.0035 |
| KF3CT:CXCL9/MIG | 0.0065 ± 0.0021 | 0.0005 ± 0.0078 | 0.0155 ± 0.0064 | -0.007 ± 0.0071 | -0.005 ± 0.017 | -0.0095 ± 0.021 | 0.003 ± 0.0014 | 0.003 | 0.006 ± 0.0014 | -0.002 | -0.0125 ± 0.00071 | 0.0025 ± 0.012 | 0.004 ± 0.0085 | -0.032 ± 0.013 | -0.022 ± 0.0071 | 0.0065 ± 0.013 | -0.0035 ± 0.019 | 0.0025 ± 0.011 | 0.0105 ± 0.00071 | 0.0155 ± 0.023 |
| MyoF:CD106/VCAM-1 | -0.0165 ± 0.0064 | -0.017 ± 0.028 | -0.0145 ± 0.018 | -0.02 ± 0.013 | -0.027 ± 0.016 | 0.0035 ± 0.016 | 0.001 ± 0.0042 | -0.026 ± 0.0028 | -0.0205 ± 0.0064 | -0.031 ± 0.016 | -0.102 ± 0.064 | -0.337 ± 0.03 | -0.0675 ± 0.0064 | -0.534 ± 0.053 | 0.001 ± 0.048 | -0.0175 ± 0.028 | -0.021 ± 0.051 | -0.023 ± 0.017 | 0.0095 ± 0.0035 | -0.001 |
| HDF3CGF:CXCL9/MIG | 0.0055 ± 0.026 | 0.0035 ± 0.019 | -0.0225 ± 0.025 | -0.019 ± 0.0014 | -0.01 ± 0.014 | -0.0195 ± 0.026 | -0.0255 ± 0.044 | -0.0445 ± 0.0092 | -0.149 ± 0.11 | 0 ± 0.0028 | -0.021 ± 0.0057 | -0.0325 ± 0.018 | -0.0065 ± 0.015 | -0.159 ± 0.023 | -0.011 ± 0.014 | 0.0145 ± 0.0064 | -0.02 ± 0.047 | -0.0125 ± 0.023 | 0.0185 ± 0.005 | 0.009 ± 0.024 |
| BE3C:Keratin 8/18 | -0.007 ± 0.0071 | -0.028 ± 0.0071 | -0.0265 ± 0.0078 | -0.0185 ± 0.0064 | -0.016 ± 0.028 | 0.017 ± 0.023 | -0.019 ± 0.02 | -0.009 ± 0.034 | -0.02 ± 0.0071 | -0.007 ± 0.037 | -0.0105 ± 0.0078 | 0.005 ± 0.024 | 0 ± 0.014 | -0.007 ± 0.014 | -0.033 ± 0.041 | -0.0085 ± 0.022 | -0.03 ± 0.017 | -0.0135 ± 0.0021 | -0.024 ± 0.0028 | 0.009 ± 0.013 |
| MyoF:CXCL8/IL-8 | -0.0015 ± 0.023 | -0.014 ± 0.011 | 0.002 ± 0.0099 | -0.0055 ± 0.029 | -0.004 ± 0.085 | 0.022 ± 0.075 | -0.0015 ± 0.019 | 0.028 ± 0.018 | 0.043 ± 0.038 | 0.021 ± 0.041 | 0.023 ± 0.041 | 0.0385 ± 0.028 | -0.193 ± 0.011 | -0.12 ± 0.022 | -0.0255 ± 0.08 | -0.0035 ± 0.03 | 0.0435 ± 0.019 | 0.0195 ± 0.06 | 0.077 ± 0.079 | 0.0735 ± 0.074 |
| lMphg:CD106/VCAM-1 | 0.011 ± 0.014 | 0.004 ± 0.0071 | 0.013 ± 0.0028 | -0.008 ± 0.013 | 0.0185 ± 0.0035 | 0.023 ± 0.016 | 0.005 | -0.004 ± 0.0042 | -0.017 ± 0.011 | 0.0085 ± 0.032 | -0.0035 ± 0.018 | -0.003 ± 0.0099 | -0.037 ± 0.03 | -0.0435 ± 0.035 | -0.004 ± 0.02 | 0.007 ± 0.014 | -0.004 ± 0.04 | -0.0135 ± 0.013 | 0.0015 ± 0.028 | 0.014 ± 0.0057 |
| BE3C:MMP-9 | -0.0135 ± 0.021 | 0.005 ± 0.0071 | 0.0005 ± 0.012 | 0.0075 ± 0.025 | 0.0025 ± 0.018 | 0.0265 ± 0.012 | -0.0125 ± 0.0092 | 0.026 ± 0.0099 | 0.0525 ± 0.021 | 0.0075 ± 0.0092 | 0.013 ± 0.0028 | 0.001 ± 0.023 | 0.018 ± 0.0071 | -0.0535 ± 0.04 | -0.0395 ± 0.005 | -0.026 ± 0.0042 | -0.019 ± 0.047 | 0.0235 ± 0.033 | 0.0185 ± 0.044 | 0.0645 ± 0.067 |
| HDF3CGF:TIMP-2 | -0.0195 ± 0.025 | -0.0065 ± 0.033 | -0.009 ± 0.071 | -0.0495 ± 0.028 | -0.0155 ± 0.05 | -0.037 ± 0.073 | 0.0155 ± 0.023 | 0.004 ± 0.033 | -0.019 ± 0.035 | 0.017 ± 0.038 | 0.0295 ± 0.018 | 0.031 ± 0.045 | 0.136 ± 0.0057 | 0.108 ± 0.0071 | -0.018 ± 0.062 | 0.003 ± 0.047 | 0.008 ± 0.045 | -0.008 ± 0.017 | 0.0335 ± 0.022 | -0.004 ± 0.023 |
| KF3CT:uPA | -0.0085 ± 0.022 | -0.0215 ± 0.026 | -0.006 ± 0.014 | -0.0085 ± 0.022 | 0.032 ± 0.027 | 0.0045 ± 0.021 | -0.001 ± 0.034 | 0.0145 ± 0.022 | 0.0125 ± 0.00071 | 0.013 ± 0.0042 | 0.006 ± 0.023 | 0.007 ± 0.017 | 0.022 ± 0.0028 | -0.0225 ± 0.0021 | -0.0175 ± 0.019 | 0.023 ± 0.033 | 0.017 ± 0.05 | -0.002 ± 0.0028 | 0.0105 ± 0.0035 | 0.016 ± 0.0014 |
